In US7138361B2, “Herbicidal heterocycles” (E. I. du Pont de Nemours and Company, priority 2000, dated 2006):

Tests used:
Type in all cases: in vivo
[1] = tested on: Surinam grass (Brachiaria decumbens); experiment: Test B postemergence; conditions: 13 to 15 days
Outline: (§1)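 Greenhouse test: chemicals are formulated in a surfactant-containing non-phytotoxic solvent and applied either preemergence to planted seeds or postemergence to plants 2 to 18 cm tall. Response is rated visually versus controls after 13 to 15 days, 0 meaning no effect and 100 complete control.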

[2] = tested on: barnyardgrass (Echinochloa crus-galli); experiment: Test B postemergence; conditions: 13 to 15 days
Outline: as §1

[3] = tested on: blackgrass (Alopecurus myosuroides); experiment: Test B postemergence; conditions: 13 to 15 days
Outline: as §1

[4] = tested on: cocklebur (Xanthium strumarium); experiment: Test B postemergence; conditions: 13 to 15 days
Outline: as §1

corn (Zea mays) [5] = experiment: Test B postemergence; conditions: 13 to 15 days
Outline: as §1

[6] = tested on: crabgrass (Digitaria sanguinalis); experiment: Test B postemergence; conditions: 13 to 15 days
Outline: as §1

[7] = tested on: giant foxtail (Setaria faberii); experiment: Test B postemergence; conditions: 13 to 15 days
Outline: as §1

[8] = tested on: lambsquarters (Chenopodium album); experiment: Test B postemergence; conditions: 13 to 15 days
Outline: as §1

[9] = tested on: morning glory (Ipomoea hederacea); experiment: Test B postemergence; conditions: 13 to 15 days
Outline: as §1

[10] = tested on: pigweed (Amaranthus retroflexus); experiment: Test B postemergence; conditions: 13 to 15 days
Outline: as §1

[11] = tested on: velvetleaf (Abutilon theophrasti); experiment: Test B postemergence; conditions: 13 to 15 days
Outline: as §1

[12] = tested on: wheat (Triticum aestivum); experiment: Test B postemergence; conditions: 13 to 15 days
Outline: as §1

wild oat (Avena fatua) = experiment: Test B postemergence; conditions: 13 to 15 days
Outline: as §1

[13] = tested on: Surinam grass (Brachiaria decumbens); experiment: Test B preemergence
Outline: as §1

[14] = tested on: barnyardgrass (Echinochloa crus-galli); experiment: Test B preemergence
Outline: as §1

[15] = tested on: cocklebur (Xanthium strumarium); experiment: Test B preemergence
Outline: as §1

corn (Zea mays) [16] = experiment: Test B preemergence
Outline: as §1

[17] = tested on: crabgrass (Digitaria sanguinalis); experiment: Test B preemergence
Outline: as §1

[18] = tested on: giant foxtail (Setaria faberii); experiment: Test B preemergence
Outline: as §1

[19] = tested on: lambsquarters (Chenopodium album); experiment: Test B preemergence
Outline: as §1

[20] = tested on: morning glory (Ipomoea hederacea); experiment: Test B preemergence
Outline: as §1

[21] = tested on: pigweed (Amaranthus retroflexus); experiment: Test B preemergence
Outline: as §1

rice (Oryza saliva) = experiment: Test B preemergence
Outline: as §1

[22] = tested on: velvetleaf (Abutilon theophrasti); experiment: Test B preemergence
Outline: as §1

[23] = tested on: smallflower flatsedge (Cyperus difformis); experiment: Test C flooded paddy test; conditions: for Flatsedge plant response rating: Flooded Paddy, scale 0 to 100, 0 no effect, 100 complete control; for Plant response rating, Flatsedge: flooded paddy test, scale 0 to 100 (0 no effect, 100 complete control)
Outline: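 Plants were grown to the 2-leaf stage under flooded paddy conditions and treated. They were then kept in a greenhouse for 12 to 14 days and visually rated against untreated controls on a 0–100 scale, where 0 is no effect and 100 is complete control.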

Nightshade = experiment: Test C preemergence; conditions: Rate 250 g/ha, visual evaluation after 12 to 14 days
Sunflower = experiment: Test C preemergence; conditions: Rate 250 g/ha, visual evaluation after 12 to 14 days
[24] = Rate 125 g/ha, scale 0 (no effect) to 100 (complete control)
[25] = Rate 500 g/ha, scale 0 to 100, 0 is no effect, 100 is complete control
[26] = Preemergence, Rate 500 g/ha, scale 0 to 100, 0 no effect, 100 complete control
[27] = preemergence, Rate 125 g/ha, scale of 0 to 100 where 0 is no effect and 100 is complete control, 13 to 15 days

O=C1C(n2ccc(C3CCCCC3)n2)SCN1c1cccc(OC(F)(F)F)c1 (stereo not drawn) [Compound 50]
Plant response rating, Surinam grass [1, 24]: 0
Plant response rating, Surinam grass [1, 25]: 0
Plant response rating, Barnyardgrass [2, 24]: 0
Plant response rating, Barnyardgrass [2, 25]: 90
Plant response rating, Blackgrass [3, 24]: 0
Plant response rating, Blackgrass [3, 25]: 0
Plant response rating, Cocklebur [4, 24]: 0
Plant response rating, Cocklebur [4, 25]: 50
Plant response rating, Corn (corn (Zea mays) [5]; [24]): 0
Plant response rating, Corn (corn (Zea mays) [5]; [25]): 0
Plant response rating, Crabgrass [6, 24]: 30
Plant response rating, Crabgrass [6, 25]: 50
Plant response rating, Foxtail, Giant [7, 24]: 0
Plant response rating, Foxtail, Giant [7, 25]: 50
Plant response rating, Lambsquarters [8, 24]: 70
Plant response rating, Lambsquarters [8, 25]: 80
Plant response rating, Morningglory [9, 24]: 0
Plant response rating, Morningglory [9, 25]: 0
Plant response rating, Pigweed [10, 24]: 0
Plant response rating, Pigweed [10, 25]: 0
Plant response rating, Velvetleaf [11, 24]: 0
Plant response rating, Velvetleaf [11, 25]: 0
Plant response rating, Wheat [12, 24]: 0
Plant response rating, Wheat [12, 25]: 0
Plant response rating, Wild Oat (wild oat (Avena fatua); [24]): 0
Plant response rating, Wild Oat (wild oat (Avena fatua); [25]): 0
Plant response rating, Surinam grass [13, 26]: 30
Plant response rating, Surinam grass [13, 27]: 0
Plant response rating, Barnyardgrass [14, 26]: 90
Plant response rating, Barnyardgrass [14, 27]: 0
Plant response rating, Cocklebur [15, 26]: 0
Plant response rating, Cocklebur [15, 27]: 0
Plant response rating, Corn (corn (Zea mays) [16]; [26]): 0
Plant response rating, Corn (corn (Zea mays) [16]; [27]): 0
Plant response rating, Crabgrass [17, 26]: 100
Plant response rating, Crabgrass [17, 27]: 100
Plant response rating, Foxtail, Giant [18, 26]: 100
Plant response rating, Foxtail, Giant [18, 27]: 20
Plant response rating, Lambsquarters [19, 26]: 90
Plant response rating, Lambsquarters [19, 27]: 0
Plant response rating, Morningglory [20, 26]: 0
Plant response rating, Morningglory [20, 27]: 0
Plant response rating, Pigweed [21, 26]: 0
Plant response rating, Pigweed [21, 27]: 0
Plant response rating, Rice (rice (Oryza saliva); [26]): 0
Plant response rating, Rice (rice (Oryza saliva); [27]): 0
Plant response rating, Velvetleaf [22, 26]: 100
Plant response rating, Velvetleaf [22, 27]: 100
Flatsedge plant response rating ([23]; Rate 250 g/ha): 90
Flatsedge plant response rating ([23]; Rate 500 g/ha): 100
Plant response rating, Flatsedge ([23]; Rate 62 g/ha): 80
Plant response rating, Flatsedge ([23]; Rate 125 g/ha): 90
Plant response rating (0 to 100), Nightshade (Nightshade): 0
Plant response rating (0 to 100), Sunflower (Sunflower): 30

O=C1C(n2ccc(C3CCCCC3)n2)OCN1c1cccc(C(F)(F)F)c1 (stereo not drawn) [Compound 51]
Plant response rating, Surinam grass [1, 24]: 0
Plant response rating, Surinam grass [1, 25]: 0
Plant response rating, Barnyardgrass [2, 24]: 0
Plant response rating, Barnyardgrass [2, 25]: 0
Plant response rating, Blackgrass [3, 24]: 0
Plant response rating, Blackgrass [3, 25]: 0
Plant response rating, Cocklebur [4, 24]: 0
Plant response rating, Cocklebur [4, 25]: 0
Plant response rating, Corn (corn (Zea mays) [5]; [24]): 0
Plant response rating, Corn (corn (Zea mays) [5]; [25]): 0
Plant response rating, Crabgrass [6, 24]: 0
Plant response rating, Crabgrass [6, 25]: 20
Plant response rating, Foxtail, Giant [7, 24]: 0
Plant response rating, Foxtail, Giant [7, 25]: 0
Plant response rating, Lambsquarters [8, 24]: 80
Plant response rating, Lambsquarters [8, 25]: 90
Plant response rating, Morningglory [9, 24]: 0
Plant response rating, Morningglory [9, 25]: 0
Plant response rating, Pigweed [10, 24]: 0
Plant response rating, Pigweed [10, 25]: 80
Plant response rating, Velvetleaf [11, 24]: 0
Plant response rating, Velvetleaf [11, 25]: 0
Plant response rating, Wheat [12, 24]: 0
Plant response rating, Wheat [12, 25]: 0
Plant response rating, Wild Oat (wild oat (Avena fatua); [24]): 0
Plant response rating, Wild Oat (wild oat (Avena fatua); [25]): 0
Plant response rating, Surinam grass [13, 26]: 20
Plant response rating, Surinam grass [13, 27]: 0
Plant response rating, Barnyardgrass [14, 26]: 80
Plant response rating, Barnyardgrass [14, 27]: 80
Plant response rating, Cocklebur [15, 26]: 0
Plant response rating, Cocklebur [15, 27]: 0
Plant response rating, Corn (corn (Zea mays) [16]; [26]): 0
Plant response rating, Corn (corn (Zea mays) [16]; [27]): 0
Plant response rating, Crabgrass [17, 26]: 100
Plant response rating, Crabgrass [17, 27]: 100
Plant response rating, Foxtail, Giant [18, 26]: 50
Plant response rating, Foxtail, Giant [18, 27]: 0
Plant response rating, Lambsquarters [19, 26]: 100
Plant response rating, Lambsquarters [19, 27]: 100
Plant response rating, Morningglory [20, 26]: 0
Plant response rating, Morningglory [20, 27]: 0
Plant response rating, Pigweed [21, 26]: 100
Plant response rating, Pigweed [21, 27]: 0
Plant response rating, Rice (rice (Oryza saliva); [26]): 0
Plant response rating, Rice (rice (Oryza saliva); [27]): 0
Plant response rating, Velvetleaf [22, 26]: 0
Plant response rating, Velvetleaf [22, 27]: 0
Flatsedge plant response rating ([23]; Rate 250 g/ha): 100
Flatsedge plant response rating ([23]; Rate 500 g/ha): 100
Plant response rating, Flatsedge ([23]; Rate 62 g/ha): 40
Plant response rating, Flatsedge ([23]; Rate 125 g/ha): 90
Plant response rating (0 to 100), Nightshade (Nightshade): 0
Plant response rating (0 to 100), Sunflower (Sunflower): 30
